Measurements as given in US6737383B1, “Herbicidal oxadiazolidines” (priority 1999, dated 2004).

Columns and labels:
tall mallow = test: Test D tall mallow; assay type: in vivo, Malva sylvestris; details: Preemergence, 0 to 100 scale
How it was run: (§1)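 Scoring used a 0–100 visual injury scale, with 0 meaning no effect and 100 complete control, assessed 14–21 days after application alongside untreated pots. Preemergence treatments went onto sandy loam surfaces of separately potted seeds within a day of sowing.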

common groundsel = test: Test D common groundsel; assay type: in vivo, Senecio vulgaris; details: Preemergence, 0 to 100 scale
How it was run: as §1

itchgrass = test: Test D itchgrass; assay type: in vivo, Rottboellia exaltata; details: Preemergence, 0 to 100 scale
How it was run: as §1

Johnson grass = test: Test D Johnson grass; assay type: in vivo, Sorghum halepense; details: Preemergence, 0 to 100 scale
How it was run: as §1

sandbur = test: Test D sandbur; assay type: in vivo, Cenchrus echinatus; details: Preemergence, 0 to 100 scale
How it was run: as §1

hairy beggarticks = test: Test C postemergence hairy beggarticks; assay type: in vivo, Bidens pilosa; details: 0 to 100 scale, 0 no effect, 100 complete control
How it was run: (§2)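 Soil: sandy loam/potting mix 60:40. Treatment: postemergence, solvent + surfactant formulation. Readout: visual control score 0–100 vs untreated at ~14–21 days.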

cocklebur = test: Test C postemergence cocklebur; assay type: in vivo, Xanthium strumarium; details: 0 to 100 scale, 0 no effect, 100 complete control
How it was run: as §2

pitted morningglory = test: Test D pitted morningglory; assay type: in vivo, Ipomoea lacunosa; details: Preemergence, 0 to 100 scale
How it was run: as §1

guineagrass = test: Test D guineagrass; assay type: in vivo, Panicum maximum; details: Preemergence, 0 to 100 scale
How it was run: as §1

purple nutsedge = test: Test D purple nutsedge; assay type: in vivo, Cyperus rotundus; details: Preemergence, 0 to 100 scale
How it was run: as §1

common pursiane = test: Test D common purslane; assay type: in vivo, Portulaca oleracea
How it was run: as §1

Spanishneedles = test: Test D Spanishneedles; assay type: in vivo, Bidens bipinnata; details: Preemergence, 0 to 100 scale
How it was run: as §1

Alexandergrass = test: Test D Alexandergrass; assay type: in vivo, Brachiaria plantaginea; details: Preemergence, 0 to 100 scale
How it was run: as §1

bermuda-grass = test: Test D bermudagrass; assay type: in vivo, Cynodon dactylon; details: Preemergence, 0 to 100 scale
How it was run: as §1

[1] = Rate 16 g/ha, 0 no injury, 100 complete control
[2] = Rate 32 g/ha, 0 no injury, 100 complete control
[3] = Rate 64 g/ha, 0 no injury, 100 complete control
[4] = Rate 125 g/ha, 0 no injury, 100 complete control
[5] = Rate 64 g/ha, Preemergence; 0 to 100 scale, 0 no injury, 100 complete control
[6] = Rate 125 g/ha, Preemergence; 0 to 100 scale, 0 no injury, 100 complete control
[7] = Rate 500 g/ha; Preemergence; 0 to 100 scale

C=CCn1c(=O)on(C(=O)N(c2ccc(F)cc2)C(C)C)c1=O [Compound 146]
Plant response rating, Tall Mallow (tall mallow; [1]): 40 | Plant response rating, Tall Mallow (tall mallow; [2]): 40 | Tall Mallow plant response rating (tall mallow; [3]): 50 | Tall Mallow plant response rating (tall mallow; [4]): 80 | Plant response rating, Tall Mallow (tall mallow; Rate 250 g/ha): 90 | Plant response rating, Tall Mallow (tall mallow; Rate 500 g/ha): 100 | Plant response rating, Com. groundsel (common groundsel; [1]): 65 | Plant response rating, Com. groundsel (common groundsel; [2]): 0 | Plant response rating, Com. groundsel (common groundsel; [3]): 0 | Plant response rating, Com. groundsel (common groundsel; [4]): 75 | Plant response rating, Com. groundsel (common groundsel; Rate 250 g/ha): 85 | Plant response rating, Com. groundsel (common groundsel; Rate 500 g/ha): 100 | Plant response rating, Itchgrass (itchgrass; [1]): 85 | Plant response rating, Itchgrass (itchgrass; [2]): 90 | Plant response rating, Itchgrass (itchgrass; [3]): 90 | Plant response rating, Itchgrass (itchgrass; [4]): 90 | Plant response rating, Itchgrass (itchgrass; Rate 250 g/ha): 100 | Plant response rating, Itchgrass (itchgrass; Rate 500 g/ha): 100 | Plant response rating Johnsongrass (Johnson grass; [1]): 60 | Plant response rating Johnsongrass (Johnson grass; [2]): 60 | Plant response rating Johnsongrass (Johnson grass; [3]): 60 | Plant response rating Johnsongrass (Johnson grass; [4]): 80 | Plant response rating Johnsongrass (Johnson grass; Rate 250 g/ha): 90 | Plant response rating Johnsongrass (Johnson grass; Rate 500 g/ha): 95 | Plant response rating, Sandbur (sandbur; [1]): 0 | Plant response rating, Sandbur (sandbur; [2]): 85 | Sandbur plant response rating (sandbur; [3]): 100 | Sandbur plant response rating (sandbur; [4]): 100 | Plant response rating, Sandbur (sandbur; Rate 250 g/ha): 100 | Plant response rating, Sandbur (sandbur; Rate 500 g/ha): 100 | Plant response rating H. beggarticks (hairy beggarticks; Rate 140 g/ha): 10 | Plant response rating H. beggarticks (hairy beggarticks; Rate 280 g/ha): 20 | Plant response rating H. beggarticks (hairy beggarticks; Rate 560 g/ha): 85 | Plant response rating H. beggarticks (hairy beggarticks; Rate 1120 g/ha): 85 | Plant response rating, Cocklebur (cocklebur; Rate 140 g/ha): 40 | Plant response rating, Cocklebur (cocklebur; Rate 280 g/ha): 40 | Plant response rating, Cocklebur (cocklebur; Rate 560 g/ha): 70 | Plant response rating, Cocklebur (cocklebur; Rate 1120 g/ha): 70 | Plant response rating, P. morninglory (pitted morningglory; [1]): 0 | Plant response rating, P. morninglory (pitted morningglory; [2]): 0 | Plant response rating, P. morninglory (pitted morningglory; [3]): 0 | Plant response rating, P. morninglory (pitted morningglory; [4]): 0 | Plant response rating, P. morninglory (pitted morningglory; Rate 250 g/ha): 0 | Plant response rating, P. morninglory (pitted morningglory; Rate 500 g/ha): 20 | Plant response rating, Guineagrass (guineagrass; [1]): 90 | Plant response rating, Guineagrass (guineagrass; [2]): 95 | Plant response rating, Guineagrass (guineagrass; [3]): 100 | Plant response rating, Guineagrass (guineagrass; [4]): 100 | Plant response rating, Guineagrass (guineagrass; Rate 250 g/ha): 100 | Plant response rating, Guineagrass (guineagrass; Rate 500 g/ha): 100 | Plant response rating, Purple nutsedge (purple nutsedge; [1]): 40 | Plant response rating, Purple nutsedge (purple nutsedge; [2]): 40 | Purple nutsedge plant response rating (purple nutsedge; [3]): 65 | Purple nutsedge plant response rating (purple nutsedge; [4]): 70 | Plant response rating, Purple nutsedge (purple nutsedge; Rate 250 g/ha): 75 | Plant response rating, Purple nutsedge (purple nutsedge; Rate 500 g/ha): 100 | Plant response rating, C. purslane (common pursiane; Rate 16 g/ha; Preemergence; 0 to 100 scale, 0 no injury, 100 complete control): 0 | Plant response rating, C. purslane (common pursiane; Rate 32 g/ha; Preemergence; 0 to 100 scale, 0 no injury, 100 complete control): 0 | Plant response rating, C. purslane (common pursiane; [5]): 0 | Plant response rating, C. purslane (common pursiane; [6]): 0 | Plant response rating, C. purslane (common pursiane; Rate 250 g/ha; Preemergence; 0 to 100 scale): 0 | Plant response rating, C. purslane (common pursiane; [7]): 0 | Plant response rating, Spanishneedles (Spanishneedles; [1]): 0 | Plant response rating, Spanishneedles (Spanishneedles; [2]): 75 | Spanishneedles plant response rating (Spanishneedles; [3]): 85 | Spanishneedles plant response rating (Spanishneedles; [4]): 90 | Plant response rating, Spanishneedles (Spanishneedles; Rate 250 g/ha): 100 | Plant response rating, Spanishneedles (Spanishneedles; Rate 500 g/ha): 100 | Plant response rating, Alexandergrass (Alexandergrass; [1]): 65 | Plant response rating, Alexandergrass (Alexandergrass; [2]): 85 | Plant response rating, Alexandergrass (Alexandergrass; [3]): 95 | Plant response rating, Alexandergrass (Alexandergrass; [4]): 98 | Plant response rating, Alexandergrass (Alexandergrass; Rate 250 g/ha): 100 | Plant response rating, Alexandergrass (Alexandergrass; Rate 500 g/ha): 100 | Plant response rating, Bermudagrass (bermuda-grass; [1]): 65 | Plant response rating, Bermudagrass (bermuda-grass; [2]): 100 | Plant response rating, Bermudagrass (bermuda-grass; [3]): 95 | Plant response rating, Bermudagrass (bermuda-grass; [4]): 90 | Plant response rating, Bermudagrass (bermuda-grass; Rate 250 g/ha): 90 | Plant response rating, Bermudagrass (bermuda-grass; Rate 500 g/ha): 100

Cc1ccc(N(C(=O)n2oc(=O)n(C(C)C)c2=O)C(C)C)cc1 [Compound 132]
Tall Mallow plant response rating (tall mallow; [3]): 40 | Plant response rating, Com. groundsel (common groundsel; [3]): 0 | Plant response rating, Itchgrass (itchgrass; [3]): 10 | Plant response rating Johnsongrass (Johnson grass; [3]): 35 | Sandbur plant response rating (sandbur; [3]): 0 | Plant response rating H. beggarticks (hairy beggarticks; Rate 140 g/ha): 0 | Plant response rating H. beggarticks (hairy beggarticks; Rate 280 g/ha): 0 | Plant response rating, Cocklebur (cocklebur; Rate 140 g/ha): 0 | Plant response rating, Cocklebur (cocklebur; Rate 280 g/ha): 0 | Plant response rating, Cocklebur (cocklebur; Rate 560 g/ha): 0 | Plant response rating, Cocklebur (cocklebur; Rate 1120 g/ha): 0 | Plant response rating, P. morninglory (pitted morningglory; [3]): 0 | Plant response rating, Guineagrass (guineagrass; [3]): 85 | Purple nutsedge plant response rating (purple nutsedge; [3]): 0 | Plant response rating, C. purslane (common pursiane; [5]): 10 | Spanishneedles plant response rating (Spanishneedles; [3]): 0 | Plant response rating, Alexandergrass (Alexandergrass; [3]): 98 | Plant response rating, Bermudagrass (bermuda-grass; [3]): 100

CC(C)N(C(=O)n1oc(=O)n(Cc2ccccc2)c1=O)c1ccccc1 [Compound 94]
Tall Mallow plant response rating (tall mallow; [4]): 0 | Plant response rating, Tall Mallow (tall mallow; Rate 500 g/ha): 20 | Plant response rating, Com. groundsel (common groundsel; [4]): 75 | Plant response rating, Com. groundsel (common groundsel; Rate 500 g/ha): 100 | Plant response rating, Itchgrass (itchgrass; [4]): 0 | Plant response rating, Itchgrass (itchgrass; Rate 500 g/ha): 40 | Plant response rating Johnsongrass (Johnson grass; [4]): 0 | Plant response rating Johnsongrass (Johnson grass; Rate 500 g/ha): 20 | Sandbur plant response rating (sandbur; [4]): 20 | Plant response rating, Sandbur (sandbur; Rate 500 g/ha): 100 | Plant response rating H. beggarticks (hairy beggarticks; Rate 140 g/ha): 0 | Plant response rating H. beggarticks (hairy beggarticks; Rate 280 g/ha): 0 | Plant response rating H. beggarticks (hairy beggarticks; Rate 560 g/ha): 5 | Plant response rating H. beggarticks (hairy beggarticks; Rate 1120 g/ha): 20 | Plant response rating, Cocklebur (cocklebur; Rate 140 g/ha): 0 | Plant response rating, Cocklebur (cocklebur; Rate 280 g/ha): 0 | Plant response rating, P. morninglory (pitted morningglory; [4]): 0 | Plant response rating, P. morninglory (pitted morningglory; Rate 500 g/ha): 0 | Plant response rating, Guineagrass (guineagrass; [4]): 0 | Plant response rating, Guineagrass (guineagrass; Rate 500 g/ha): 100 | Purple nutsedge plant response rating (purple nutsedge; [4]): 50 | Plant response rating, Purple nutsedge (purple nutsedge; Rate 500 g/ha): 50 | Plant response rating, C. purslane (common pursiane; [6]): 0 | Plant response rating, C. purslane (common pursiane; Rate 500 g/ha, Preemergence; 0 to 100 scale): 10 | Plant response rating, C. purslane (common pursiane; [7]): 0 | Spanishneedles plant response rating (Spanishneedles; [4]): 0 | Plant response rating, Spanishneedles (Spanishneedles; Rate 500 g/ha): 0 | Plant response rating, Alexandergrass (Alexandergrass; [4]): 50 | Plant response rating, Alexandergrass (Alexandergrass; Rate 500 g/ha): 80 | Plant response rating, Bermudagrass (bermuda-grass; [4]): 90 | Plant response rating, Bermudagrass (bermuda-grass; Rate 500 g/ha): 100
